{"source": "patent EP3358006A1", "about": "“METHOD AND MEDIUM FOR CULTIVATING PRIMARY CELLS IN VITRO” (Mares Ltd., priority 2017, dated 2018)", "format_in_all_cases": "cell-based, human", "key": {"hMSCs [1]": {"test_system": "hMSCs", "test": "Osteocyte differentiation, Ca2+ accumulation by cresopthalein", "conditions": "for Absorbance at 577nm, Osteocyte-differentiated cells: 21 days; for Absorbance at 577nm, Control cells: no differentiation protocol", "protocol": "(§1) Cells at passage 6 were seeded at a density of 2x10^5 (adipogenesis and chondrogenesis) or 3x10^4 (osteogenesis) into wells of a 6 well tissue culture plate. Kits for differentiation along adipogenic, chondrocytic and osteocytic lineages were obtained from Lonza and accompanying protocols followed. Early stage characteristics of differentiation were then assessed. Adipocytes were assayed for fat accumulation after 18 days from the onset of the differentiation protocol. Cells were fixed by incubating for 10 minutes in 10% formalin, followed by 60 minutes in fresh 10% formalin and washing with 60% isopropanol. 5mM Oil red O in 60% isopropanol (filtered), 1ml per well, was added to dry wells and left for 10 minutes before washing four times with water. Oil red O was eluted with 1ml 100% isopropanol per well and the optical density measured at 500nm. Chondrocytes were assayed for collagen accumulation (after 21 days from the onset of the differentiation protocol) using Sirius red/fast green collagen staining kit purchased from Amsbio. Osteocytes were assayed for calcium accumulation (21 days after the onset of the differentiation protocol) by the method of Jager et al, 2005. In each case, values were compared with those of control cells which had been cultured under normal growth conditions without being exposed to differentiation protocols.\nCells were inoculated at a density of 3x10^4 cells/well into 6 well plates and the osteocyte differentiation protocol followed (refer to Experimental Procedures for full protocol). After 21 days, cells were incubated with 0.6M HCl for 24 hours before calcium per well was measured by complexing with cresopthalein and measuring absorbance at 577nm. C: Absorbance at 540nm for cells treated with Sirius red/fast green dye to measure collagen accumulation."}, "hMSCs [2]": {"test_system": "hMSCs", "test": "Adipocyte differentiation, fat accumulation by oil red O staining", "conditions": "for Absorbance of eluate at 500nm, Adipocyte-differentiated cells: 18 days; for Absorbance of eluate at 500nm, Control cells: no differentiation protocol", "protocol": "as §1\nCells were inoculated at a density of 2x10^5 cells/well into 6 well plates and the adipocyte differentiation protocol followed (refer to Experimental Procedures for full protocol). After 18 days, medium was removed from wells and cells stained with oil red O. The dye was eluted from the cells and the absorbance of the eluate read at 500 nm. B: Absorbance at 577nm for cells treated with cresopthalein to measure Ca2+ accumulation."}, "hMSCs [3]": {"test_system": "hMSCs", "test": "Glycolytic rate in 24-well plates (3H2O production from 5-3H-glucose)", "conditions": "p5 vs p2", "protocol": "(§2) Cryopreserved cells were thawed, washed with growth medium and seeded at a density of 1 X 10^6 cells per 225cm2 with Dulbecco's Modified Eagle's medium (DMEM) containing 2mM ultra-glutamine, 1g/l glucose, 50µg/ml gentamycin and 10% FBS. Where 3-hydroxybutyrate (3-HB) was included in the growth medium, the concentration was 5mM throughout. Cells were passaged at about 80% confluence. Cells for measurements of glycolysis or oxidation were seeded into 24-well plates at a density of 1 x 10^4 cells per well and used at about 90% confluence. Cells were maintained in either normoxic culture with 20% O2 tension or hypoxic culture with 5% O2 tension in an oxygen-tension controlled incubator. Previous workers have identified 5% O2 as being a physiologically significant level of O2 with respect to in vivo conditions for hMSCs, representing hypoxia (Pattappa et al., 2011).\nGlycolysis was measured as the production of ^3H2O from 5-^3H-glucose, which occurs during the step catalysed by enolase. Cells were incubated with 5.5mM glucose containing 17 MBq/mmol 5-^3H-glucose in DMEM without pyruvate, glutamine or glucose for 90 minutes in a total volume of 0.5mls. […] Washing with 2 column volumes of water eluted the ^3H2O which was counted for radioactivity (Tri-Carb 2800TR Liquid Scintillation Analyser)."}, "hMSCs [4]": {"test_system": "hMSCs", "test": "Substrate oxidation in 24-well plates (14CO2 production from 14C-labelled substrates)", "conditions": "for increase in substrate-oxidation rate between passage 2 and passage 5: normoxic-cultured cells (20% O2); for oxidation rate relative to glucose (fold higher): normoxic-cultured cells, 10mM acetoacetate vs 5.5mM glucose", "protocol": "as §2\nCells were incubated for 90 minutes in the presence of a single radiolabelled substrate (with addition of unlabelled substrates where indicated) in DMEM (containing no pyruvate, glucose or glutamine) in a total volume of 0.5 mls. The concentrations of single substrates were: 5.5mM glucose (considered similar to median human blood glucose concentration); 2mM pyruvate (considered higher than endogenous pyruvate concentration from glucose metabolism and sufficient to stimulate activity of pyruvate dehydrogenase plus pyruvate carboxylase); 1mM glutamine (considered similar to human blood glutamine concentrations); 10mM acetoacetate (considered similar to intracellular acetoacetate concentrations produced from maximal blood ketone body concentrations). In addition, substrates incorporated radiolabels as follows: glucose: ^21 MBq/mmol D-U-^14C-glucose; pyruvate: 0.35MBq/mmol 1-^14C-pyruvate; acetoacetate: 0.185MBq/mmol 3-^14C-acetoacetate; glutamine: 1.2 MBq/mmol U-^14C-glutamine. Evolved ^14CO2 was trapped and measured by the method of Collins et al. (1998), except that, after addition of perchloric acid to the wells, plates were gently agitated for 60 minutes to release dissolved ^14CO2. Filter papers containing trapped ^14CO2 were counted in Ecoscint using a Tri-Carb 2800TR Liquid Scintillation Analyser. […] Rates of ATP-production from individual substrates were calculated on the basis of mol/mol production as follows: glucose: 31; glutamine: 20; pyruvate: 12.5; acetoacetate: 20. For calculations of ATP-production from acetoacetate plus pyruvate, separate incubations were performed with ^14C-acetoacetate in the presence of unlabelled pyruvate and with ^14C-pyruvate in the presence of unlabelled acetoacetate. Rates of ATP-production from the labelled substrate were calculated for each condition and the results summed."}, "hMSCs [5]": {"test_system": "hMSCs", "test": "Chondrocyte differentiation, collagen accumulation by Sirius red/fast green staining", "conditions": "for activation at 5000 µM: Homo sapiens, Chondrocyte, 504 h, read-out: % increase over controls (chondrocyte differentiation); for Absorbance at 540nm, Chondrocyte-differentiated cells: 21 days; for Absorbance at 540nm, Control cells: no differentiation protocol", "protocol": "as §1\nCells were inoculated at a density of 2x10^5 cells/well into 6 well plates and the chondrocyte-differentiation protocol followed (refer to Experimental Procedures for full protocol). After 21 days, cells were fixed with Kahle fixative and stained with Sirius dye. Dye was extracted and the absorbance read at 540nm. n=3 ** p<0.004; *** p<0.0001"}, "hMSCs [6]": {"test_system": "hMSCs", "test": "cells", "conditions": "for ROS generated per mole of substrate oxidised: 90 minutes incubation with 5.5mM glucose or 10mM acetoacetate, normoxic-cultured cells, passage 5; for fold induction at 20 µM: Homo sapiens, 24 h, 24h pre-incubation with 20µM genipin, passage 5, normoxic", "protocol": "Cells were incubated under appropriate conditions in 24-well plates in a total volume of 0.2ml for 90 minutes. At 90 minutes, ROS were assayed using an Oxiselect Amplex Red kit from Cell Biolabs, Inc., according to the manufacturer's instructions. Where genipin was used, cells were pre-incubated for 24 hours with 20 µM genipin."}, "hMSCs [7]": {"test_system": "hMSCs", "test": "Calculated rates of ATP-production from substrate oxidation and glycolysis", "conditions": "full oxidation assumed; passage 2, normoxic-cultured cells", "protocol": "Cells were incubated for 90 minutes in the presence of a single radiolabelled substrate (with addition of unlabelled substrates where indicated) in DMEM (containing no pyruvate, glucose or glutamine) in a total volume of 0.5 mls. […] Evolved ^14CO2 was trapped and measured by the method of Collins et al. (1998), except that, after addition of perchloric acid to the wells, plates were gently agitated for 60 minutes to release dissolved ^14CO2. Filter papers containing trapped ^14CO2 were counted in Ecoscint using a Tri-Carb 2800TR Liquid Scintillation Analyser. […] Rates of ATP-production from individual substrates were calculated on the basis of mol/mol production as follows: glucose: 31; glutamine: 20; pyruvate: 12.5; acetoacetate: 20. […] Rates of ATP-production from the labelled substrate were calculated for each condition and the results summed.\nATP-yields were calculated from the following values, as follows: from glycolysis of glucose, it is assumed that 2 moles ATP will be produced per mole glucose glycolysed. […]"}, "[8]": {"conditions": "normoxic cells cultured with 5mM 3-HB from passages 1 to 5"}}, "note": "Read-outs that look alike come from different tables or passages of the source.", "data": [{"smiles": "CC(O)CC(=O)O", "note": "(stereo not drawn) [3-HB, 3-hydroxybutyrate]", "values": [{"measurement": "% increase over control (osteocyte differentiation)", "setting": "hMSCs [1]; Hypoxia + 5mM 3-HB", "value": 36, "unit": "%"}, {"measurement": "Absorbance at 577nm, Osteocyte-differentiated cells", "setting": "hMSCs [1]; Hypoxia + 5mM 3-HB", "value": "*** 0.495 ± 0.007"}, {"measurement": "Absorbance at 577nm, Control cells", "setting": "hMSCs [1]; Hypoxia + 5mM 3-HB", "value": "0.363 ± 0.003"}, {"measurement": "% increase over control (osteocyte differentiation)", "setting": "hMSCs [1]; Normoxia + 5mM 3-HB", "value": 21, "unit": "%"}, {"measurement": "Absorbance at 577nm, Osteocyte-differentiated cells", "setting": "hMSCs [1]; Normoxia + 5mM 3-HB", "value": "*** 0.375 ± 0.003"}, {"measurement": "Absorbance at 577nm, Control cells", "setting": "hMSCs [1]; Normoxia + 5mM 3-HB", "value": "0.310 ± 0.001"}, {"measurement": "% increase over control (adipocyte differentiation)", "setting": "hMSCs [2]; Hypoxia + 5mM 3-HB", "value": 27, "unit": "%"}, {"measurement": "Absorbance of eluate at 500nm, Adipocyte-differentiated cells", "setting": "hMSCs [2]; Hypoxia + 5mM 3-HB", "value": "*** 0.727 ± 0.001"}, {"measurement": "Absorbance of eluate at 500nm, Control cells", "setting": "hMSCs [2]; Hypoxia + 5mM 3-HB", "value": "0.570 ± 0.001"}, {"measurement": "% increase over control (adipocyte differentiation)", "setting": "hMSCs [2]; Normoxia + 5mM 3-HB", "value": 34, "unit": "%"}, {"measurement": "Absorbance of eluate at 500nm, Adipocyte-differentiated cells", "setting": "hMSCs [2]; Normoxia + 5mM 3-HB", "value": "*** 0.698 ±0.005"}, {"measurement": "Absorbance of eluate at 500nm, Control cells", "setting": "hMSCs [2]; Normoxia + 5mM 3-HB", "value": "0.520 ± 0.006"}, {"measurement": "decrease in glycolytic rates by passage 5", "setting": "hMSCs [3]; cells cultured under hypoxia with 5mM 3-HB", "value": 1.5, "unit": "fold"}, {"measurement": "increase in glycolytic rate at p5", "setting": "hMSCs [3]; normoxic cells cultured with 5mM 3-HB", "value": 1.4, "unit": "fold"}, {"measurement": "increase in glucose oxidation rate at passage 5", "setting": "hMSCs [4]; [8]", "value": 7.5, "unit": "fold"}, {"measurement": "reduction of acetoacetate oxidation rate at passage 5", "setting": "hMSCs [4]; [8]", "value": 1.3, "unit": "fold"}, {"measurement": "activation at 5000 µM", "setting": "hMSCs [5]; Hypoxia + 5mM 3-HB", "value": 45, "unit": "%"}, {"measurement": "activation at 5000 µM", "setting": "hMSCs [5]; Normoxia + 5mM 3-HB", "value": 178, "unit": "%"}, {"measurement": "Absorbance at 540nm, Chondrocyte-differentiated cells", "setting": "hMSCs [5]; Hypoxia + 5mM 3-HB", "value": "** 0.806 ± 0.024"}, {"measurement": "Absorbance at 540nm, Control cells", "setting": "hMSCs [5]; Hypoxia + 5mM 3-HB", "value": "0.556 ± 0.008"}, {"measurement": "Absorbance at 540nm, Chondrocyte-differentiated cells", "setting": "hMSCs [5]; Normoxia + 5mM 3-HB", "value": "*** 0.887 ± 0.020"}, {"measurement": "Absorbance at 540nm, Control cells", "setting": "hMSCs [5]; Normoxia + 5mM 3-HB", "value": "0.319 ± 0.004"}]}, {"smiles": "CC(=O)CC(=O)O", "note": "[acetoacetate]", "values": [{"measurement": "ROS generated per mole of substrate oxidised", "setting": "hMSCs [6]", "value": "0.0017 moles of ROS"}, {"measurement": "difference in ROS generation per mole substrate oxidised, compared with glucose", "setting": "hMSCs [6]; acetoacetate lower than glucose", "value": 4.5, "unit": "fold"}, {"measurement": "increase in substrate-oxidation rate between passage 2 and passage 5", "setting": "hMSCs [4]", "value": 3.5, "unit": "fold"}, {"measurement": "oxidation rate relative to glucose (fold higher)", "setting": "hMSCs [4]; passage 2", "value": 25, "unit": "fold"}, {"measurement": "oxidation rate relative to glucose (fold higher)", "setting": "hMSCs [4]; passage 5", "value": 42, "unit": "fold"}]}, {"smiles": "COC(=O)C1=CO[C@@H](O)[C@@H]2C(CO)=CC[C@H]12", "note": "[genipin]", "values": [{"measurement": "fold induction at 20 µM", "setting": "hMSCs [6]; read-out: increase in ROS-production, acetoacetate substrate (10mM)", "value": 2}, {"measurement": "fold induction at 20 µM", "setting": "hMSCs [6]; read-out: increase in ROS-production, glucose substrate (5.5mM)", "value": 1.6}]}, {"smiles": "OC[C@H]1OC(O)[C@H](O)[C@@H](O)[C@@H]1O", "note": "(stereo partly drawn) [glucose, reference compound]", "values": [{"measurement": "ROS generated per mole of substrate oxidised", "setting": "hMSCs [6]", "value": "0.076 moles of ROS"}, {"measurement": "ATP produced compared with acetoacetate alone (times less)", "setting": "hMSCs [7]", "value": 16, "unit": "times less"}, {"measurement": "reduction of rate of acetoacetate-oxidation by added substrate", "setting": "hMSCs [4]; 10mM acetoacetate plus unlabelled 5.5mM glucose, passage 2, normoxic-cultured cells", "value": "more than 3 fold"}, {"measurement": "increase in substrate-oxidation rate between passage 2 and passage 5", "setting": "hMSCs [4]", "value": 2, "unit": "fold"}]}, {"smiles": "NC(=O)CC[C@H](N)C(=O)O", "note": "[glutamine, reference compound]", "values": [{"measurement": "ATP produced compared with acetoacetate alone (times less)", "setting": "hMSCs [7]", "value": 33, "unit": "times less"}, {"measurement": "increase in substrate-oxidation rate between passage 2 and passage 5", "setting": "hMSCs [4]", "value": "not significantly different"}]}, {"smiles": "O=C(O)CC(O)C(=O)O", "note": "(stereo not drawn) [malate, reference compound]", "values": [{"measurement": "effect of added substrate on rates of pyruvate oxidation", "setting": "hMSCs [4]; data not shown", "value": "no significant effect"}]}]}
